For 53 compounds, IC50 results are on record in US7049323B2, “Amidoheterocycles as modulators of the melanocortin-4 receptor” (Bristol-Myers Squibb Company, priority 2003, dated 2006).

A value given as a limit tells only on which side of the number the result lay.

In this test the target is T1, cloned human MC4R receptors (Homo sapiens, UniProt P32245).
T1 construct: expressed in transfected cells; host or cells: Hi5 insect cells or HEK-293 cells (baculovirus/human MC4R receptor construct); membranes
T1 sequence (P32245 whole entry): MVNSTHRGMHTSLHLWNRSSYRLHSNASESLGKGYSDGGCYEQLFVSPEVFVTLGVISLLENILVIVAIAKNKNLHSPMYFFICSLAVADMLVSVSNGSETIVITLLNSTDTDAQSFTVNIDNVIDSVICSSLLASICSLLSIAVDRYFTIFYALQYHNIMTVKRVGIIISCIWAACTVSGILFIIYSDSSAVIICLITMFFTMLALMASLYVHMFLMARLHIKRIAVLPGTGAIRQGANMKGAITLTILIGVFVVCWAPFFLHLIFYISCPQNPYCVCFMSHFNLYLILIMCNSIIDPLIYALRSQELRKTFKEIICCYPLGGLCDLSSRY
Put plainly: Melanocortin MC4R membrane binding assay ([125I]NDP-α-MSH competition). The conditions noted are these: [125I]NDP-α-MSH 0.1 nM, membranes of Hi5 insect cells or HEK-293 cells, 90 minutes at 37° C. The protocol:
Melanocortin MC4R Binding Assay. […] A membrane binding assay was used to identify competitive ligands of [^125I]NDP-α-MSH binding to cloned human MC4R receptors expressed in Hi5 insect cells or HEK-293 cells transfected by a baculovirus/human MC4R receptor construct. The membrane binding buffer was composed of 25 mM HEPES, pH 7.4, 140 mM NaCl, 1.2 mM MgCl2, 2.5 mM CaCl2, and 0.1% BSA Membrane protein (0.5 μg) and [^125I]-NDP-α-MSH (to a final concentration of 0.1 nM) were added. Competing ligands or a buffer blank were added and incubated for 90 minutes at 37° C. After filtration, the cell membranes were evaluated in a Wallac Microbeta Trilux Scintillation and Luminescence Counter (Model 1450). Dose-response cureves were fitted by […] analyses and IC50 values are calculated using ExcelFit.
For the compound `CC(C)CC(=O)N(C1CCCC1)[C@H]1CCN(C(=O)[C@@H](Cc2ccc(Cl)cc2)NC(=O)CCN(C)C)C1` [Example 61], the IC50 was in the range of 1000 to 10000 nM.

In the case of `CC(C)C(=O)N(C1CCCCC1)[C@H]1CCN(C(=O)[C@@H](Cc2ccc(Cl)cc2)NC(=O)[C@@H]2CCN2C)C1` [Example 69], the IC50 was under 250 nM.

`CC(C)C(=O)N(C1CCCCC1)[C@H]1CCN(C(=O)[C@@H](Cc2ccc(Cl)cc2)NC(=O)[C@@H]2CNCCN2)C1` [Example 46] had an IC50 of under 250 nM.

For the compound `O=C(N[C@H](Cc1ccc(Cl)cc1)C(=O)N1CCC(N(C(=O)c2ccno2)C2CCCCC2)C1)[C@H]1Cc2ccccc2CN1` (some centres unmarked) [Example 17], the IC50 is under 250 nM.

Compound `CC(C)N([C@H]1CCN(C(=O)[C@@H](Cc2ccc(Cl)cc2)NC(=O)CCN(C)C)C1)S(C)(=O)=O` [Example 62] had an IC50 of 1000 to 10000 nM.

In turn, `CC(C)CN([C@H]1CCN(C(=O)[C@@H](Cc2ccc(Cl)cc2)NC(=O)CCN)C1)S(C)(=O)=O` [Example 49] returned an IC50 of 1000 to 10000 nM.

Compound `CN(C)CCC(=O)N[C@H](Cc1ccc(Cl)cc1)C(=O)N1CC(N(C(=O)C2CCC2)C2CCCCC2)C1` [Example 7] yielded an IC50 of 250 to 1000 nM.

Compound `CS(=O)(=O)N(C1CCCCC1)[C@H]1CCN(C(=O)[C@@H](Cc2ccc(Cl)cc2)NC(=O)[C@H]2Cc3ccccc3CN2)C1` [Example 35] came in with an IC50 of under 250 nM.

Regarding `CN(C)CCC(=O)N[C@H](Cc1ccc(Cl)cc1)C(=O)N1CC[C@H](N(C2CCCCC2)S(C)(=O)=O)C1` [Example 56], the IC50 was in the range of 1000 to 10000 nM.

`CC(C)N(C(=O)c1ccco1)[C@H]1CCN(C(=O)[C@@H](Cc2ccc(Cl)cc2)NC(=O)[C@H]2Cc3ccccc3CN2)C1` [Example 38] returned an IC50 of 250 to 1000 nM.

`NCCC(=O)N[C@H](Cc1ccc(Cl)cc1)C(=O)N1CC[C@H](N(C(=O)c2cnccn2)C2CCCCC2)C1` [Example 28] yielded an IC50 of 250 to 1000 nM.

In the case of `CC(C)(C)C(=O)N(C1CCCCC1)[C@H]1CCN(C(=O)[C@@H](Cc2ccc(Cl)cc2)NC(=O)CCN)C1` [Example 32], the IC50 was under 250 nM.

The compound `CCCC(=O)N(C1CCCC1)C1CN(C(=O)[C@@H](Cc2ccc(Cl)cc2)NC(=O)CCN(C)C)C1` [Example 1] gave a half-inhibitory concentration (IC50) of 250 to 1000 nM.

Take `NCCC(=O)N[C@H](Cc1ccc(Cl)cc1)C(=O)N1CC[C@H](N(C(=O)c2ccccc2)C2CCCCC2)C1` [Example 27]: the IC50 is under 250 nM.

The compound `CN(C)CCC(=O)N[C@H](Cc1ccc(Cl)cc1)C(=O)N1CC(N(C2CCCCC2)S(C)(=O)=O)C1` [Example 4] showed an IC50 of 250 to 1000 nM.

Compound `CCCC(=O)N(C1CCCCC1)[C@H]1CCN(C(=O)[C@@H](Cc2ccc(Cl)cc2)NC(=O)CCN)C1` [Example 30] showed an IC50 of under 250 nM.

Compound `CC(C)C(=O)N(C1CCCCC1)[C@H]1CCN(C(=O)[C@@H](Cc2ccc(Cl)cc2)NC(=O)[C@H]2CCN2C)C1` [Example 68] showed an IC50 of 250 to 1000 nM.

In turn, `CC(C)N(C(=O)c1ccco1)[C@@H]1CCN(C(=O)[C@@H](Cc2ccc(Cl)cc2)NC(=O)CCN)C1` [Example 36] displayed an IC50 of 1000 to 10000 nM.

`CC(C)C(=O)N(C1CCCCC1)[C@H]1CCN(C(=O)[C@@H](Cc2ccc(Cl)cc2)NC(=O)CCN(C)C)C1` [Example 60] had an IC50 of under 250 nM.

In the case of `CC(C)N(C(=O)c1ccco1)[C@H]1CCN(C(=O)[C@@H](Cc2ccc(Cl)cc2)NC(=O)CCN(C)C)C1` [Example 55], the IC50 was 1000 to 10000 nM.

For `CC(=O)N(C1CCCCC1)[C@H]1CCN(C(=O)[C@@H](Cc2ccc(Cl)cc2)NC(=O)CCN)C1` [Example 43], the IC50 was in the range of 1000 to 10000 nM.

For `NCCC(=O)N[C@H](Cc1ccc(Cl)cc1)C(=O)N1CC[C@H](N(C=O)C2CCCCC2)C1` [Example 44], the IC50 was in the range of 1000 to 10000 nM.

In turn, `CS(=O)(=O)N(C1CCCCC1)[C@H]1CCN(C(=O)[C@@H](Cc2ccc(Cl)cc2)NC(=O)CCN)C1` [Example 39] displayed an IC50 of 250 to 1000 nM.

For the compound `NCCC(=O)N[C@H](Cc1ccc(Cl)cc1)C(=O)N1CC[C@H](N(C(=O)c2ccco2)C2CCCC2)C1` [Example 52], the IC50 was 1000 to 10000 nM.

For `CC(C)N([C@H]1CCN(C(=O)[C@@H](Cc2ccc(Cl)cc2)NC(=O)CCN)C1)S(C)(=O)=O` [Example 53], the IC50 is 1000 to 10000 nM.

Compound `CC(C)CN(C(=O)c1ccco1)[C@H]1CCN(C(=O)[C@@H](Cc2ccc(Cl)cc2)NC(=O)CCN(C)C)C1` [Example 65] registered an IC50 of 1000 to 10000 nM.

Consider `CCCCC(=O)N(C1CCCCC1)C1CN(C(=O)[C@@H](Cc2ccc(Cl)cc2)NC(=O)CCN(C)C)C1` [Example 11], for which the IC50 is 250 to 1000 nM.

For `CS(=O)(=O)N(C1CCCCC1)[C@H]1CCN(C(=O)[C@@H](Cc2ccc(Cl)cc2)NC(=O)[C@@H]2CNCCN2)C1` [Example 40], the IC50 fell in the range of 250 to 1000 nM.

Turning to `CN(C)CCC(=O)N[C@H](Cc1ccc(Cl)cc1)C(=O)N1CC(N(C(=O)c2ccno2)C2CCCCC2)C1` [Example 6], the IC50 lay within 1000 to 10000 nM.

On to `CC(C)CC(=O)N(CC(C)C)[C@H]1CCN(C(=O)[C@@H](Cc2ccc(Cl)cc2)NC(=O)CCN)C1` [Example 48], for which the IC50 lay within 1000 to 10000 nM.

In turn, `NCCC(=O)N[C@H](Cc1ccc(Cl)cc1)C(=O)N1CC[C@@H](N(C(=O)c2ccccc2)C2CCCCC2)C1` [Example 25] came in with an IC50 of 250 to 1000 nM.

`O=C(N[C@H](Cc1ccc(Cl)cc1)C(=O)N1CC[C@@H](N(C(=O)c2ccno2)C2CCCCC2)C1)[C@H]1Cc2ccccc2CN1` [Example 19] gave an IC50 of 250 to 1000 nM.

In turn, `NCCC(=O)N[C@H](Cc1ccc(Cl)cc1)C(=O)N1CC[C@H](N(C(=O)c2ccoc2)C2CCCCC2)C1` [Example 29] came in with an IC50 of under 250 nM.

`CC(C)CC(=O)N(C(C)C)[C@H]1CCN(C(=O)[C@@H](Cc2ccc(Cl)cc2)NC(=O)[C@@H]2CNCCN2)C1` [Example 42] returned an IC50 of 250 to 1000 nM.

Regarding `CN(C)CCC(=O)N[C@H](Cc1ccc(Cl)cc1)C(=O)N1CC(N(C(=O)c2cc3ccccc3s2)C2CCCCC2)C1` [Example 12], the IC50 lay within 250 to 1000 nM.

Compound `CC(C)CC(=O)N(CC(C)C)[C@H]1CCN(C(=O)[C@@H](Cc2ccc(Cl)cc2)NC(=O)CCN(C)C)C1` [Example 66] showed an IC50 of 1000 to 10000 nM.

For the compound `CS(=O)(=O)N(C1CCCC1)[C@H]1CCN(C(=O)[C@@H](Cc2ccc(Cl)cc2)NC(=O)CCN)C1` [Example 50], the IC50 is 1000 to 10000 nM.

The compound `CN(C)CCC(=O)N[C@H](Cc1ccc(Cl)cc1)C(=O)N1CC(N(C(=O)CC2CCCC2)C2CCCCC2)C1` [Example 8] had an IC50 of 250 to 1000 nM.

`CN(C)CCC(=O)N[C@H](Cc1ccc(Cl)cc1)C(=O)N1CC(N(C(=O)C2CCCC2)C2CCCCC2)C1` [Example 16]: the IC50 was under 250 nM.

In turn, `CN(C)CCC(=O)N[C@H](Cc1ccc(Cl)cc1)C(=O)N1CC(N(C(=O)COc2ccccc2)C2CCCCC2)C1` [Example 13] had an IC50 of 1000 to 10000 nM.

Compound `CN(C)CCC(=O)N[C@H](Cc1ccc(Cl)cc1)C(=O)N1CC(N(C(=O)Cc2ccccc2)C2CCCCC2)C1` [Example 10] showed an IC50 of 250 to 1000 nM.

`CN(C)CCC(=O)N[C@H](Cc1ccc(Cl)cc1)C(=O)N1CC(N(C(=O)CC(C)(C)C)C2CCCCC2)C1` [Example 9] registered an IC50 of 250 to 1000 nM.

In the case of `COCC(=O)N(C1CCCCC1)[C@H]1CCN(C(=O)[C@@H](Cc2ccc(Cl)cc2)NC(=O)CCN)C1` [Example 31], the IC50 was 250 to 1000 nM.

`CC(C)CC(=O)N(C1CCCC1)[C@H]1CCN(C(=O)[C@@H](Cc2ccc(Cl)cc2)NC(=O)CCN)C1` [Example 51] registered an IC50 of 250 to 1000 nM.

`CCCC(=O)N(C1CCCCC1)C1CN(C(=O)[C@@H](Cc2ccc(Cl)cc2)NC(=O)CCN(C)C)C1` [Example 2] yielded an IC50 of under 250 nM.

In turn, `CC(=O)N(C1CCCCC1)[C@H]1CCN(C(=O)[C@@H](Cc2ccc(Cl)cc2)NC(=O)CCN(C)C)C1` [Example 58] yielded an IC50 of 1000 to 10000 nM.

As to `Cc1noc(C)c1C(=O)N(C1CCCCC1)[C@H]1CCN(C(=O)[C@@H](Cc2ccc(Cl)cc2)NC(=O)CCN)C1` [Example 34], the IC50 is under 250 nM.

Take `CC(C)CC(=O)N(C1CCCCC1)C1CN(C(=O)[C@@H](Cc2ccc(Cl)cc2)NC(=O)CCN(C)C)C1` [Example 14]: the IC50 was under 250 nM.

In turn, `NCCC(=O)N[C@H](Cc1ccc(Cl)cc1)C(=O)N1CC[C@@H](N(C(=O)c2ccno2)C2CCCCC2)C1` [Example 23] registered an IC50 of 1000 to 10000 nM.

`CN(C)CCC(=O)N[C@H](Cc1ccc(Cl)cc1)C(=O)N1CC[C@H](N(C2CCCCC2)S(=O)(=O)c2ccccc2)C1` [Example 67]: the IC50 is under 250 nM.

`CN(C)CCC(=O)N[C@H](Cc1ccc(Cl)cc1)C(=O)N1CC[C@H](N(C=O)C2CCCCC2)C1` [Example 59] came in with an IC50 of 1000 to 10000 nM.

Compound `O=C(N[C@H](Cc1ccc(Cl)cc1)C(=O)N1CC[C@H](N(C(=O)c2ccno2)C2CCCCC2)C1)[C@H]1Cc2ccccc2CN1` [Example 18] came in with an IC50 of under 250 nM.

`CC(C)CN(C(=O)c1ccco1)[C@H]1CCN(C(=O)[C@@H](Cc2ccc(Cl)cc2)NC(=O)CCN)C1` [Example 47]: the IC50 lay in the range of 1000 to 10000 nM.

What is called IC50 is the concentration that inhibits the measured activity by half.
